Data taken from patent publication US20230210116A1, “HONEYBEE REPELLENT” (EARTH CORPORATION, priority 2020, published 2023).

Legend:
[1] = tested on: honeybees; experiment: Test for Confirmation of Effect from Combined Use with Pesticide 1, 2: number of dead honeybees; assay type: in vivo, western honeybees; settings: for Number of dead honeybees: of 50 honeybees; for honeybees of the tested population that had died: test zone 1
Excerpt: (§1) Cinnamyl alcohol was used as the active ingredient of the honeybee repellent proposed by the present invention, while dinotefuran was used as the pesticide.
(§2) As the test sample representing the pesticide alone, a 0.01% by weight per volume ethanol solution of dinotefuran was used.
(§3) (2) Preparation of Feeding Stations and Water Stations 2 cotton pads (80 mm×170 mm) were layered on a lid of KP cup (150 mm in diameter) and the cotton pads were impregnated with 40% sugar water (80 g), after which two disposable wooden chopsticks (80 mm in length) were placed as “landing areas,” for use as “test insect (honeybee, stink bug) feeding station A.”
(§4) Also, equivalents of feeding station A above, except that water (80 g) was impregnated instead of 40% sugar water (80 g), were used as “water stations.”
(§5) “Test insect (honeybee, stink bug) feeding station A,” whose cotton pads were sprayed uniformly with 5 mL (containing 0.5 mg of dinotefuran) of the 0.01% by weight per volume ethanol solution of dinotefuran, was used as “test insect (honeybee, stink bug) feeding station B.”
(§6) “Test insect (honeybee, stink bug) feeding station A,” whose cotton pads were sprayed uniformly with 5 mL (containing 5 mg of cinnamyl alcohol and 0.5 mg of dinotefuran) of the mixed ethanol solution (0.1% by weight per volume of cinnamyl alcohol, 0.01% by weight per volume of dinotefuran), was used as “test insect (honeybee, stink bug) feeding station C.”
(§7) 3 spaces (80 cm×80 cm×80 cm, 25° C.) covered with nylon gauze were designated as “untreated zone” in which a water station and feeding station A were installed, “test zone 1” in which a water station and feeding stations A, B were installed, and “test zone 2” in which a water station and feeding stations A, C were installed.
(§8) In each of these “untreated zone,” “test zone 1,” and “test zone 2,” 50 honeybees (western honeybees) and 10 stink bugs (southern green stink bugs) were released and the number of dead honeybees and that of dead stink bugs were checked at the start of testing as well as 3 hours, 18 hours, and 20 hours after the start of testing.
(§9) Carvacrol was used as the active ingredient of the honeybee repellent proposed by the present invention, while clothianidin or fipronil was used as the pesticide.
As a test sample representing a combined use of the honeybee repellent proposed by the present invention and the pesticide, a mixed ethanol solution containing carvacrol and clothianidin (0.1% by weight per volume of carvacrol and 0.01% by weight per volume of clothianidin) or mixed ethanol solution containing carvacrol and fipronil (0.1% by weight per volume of carvacrol and 0.01% by weight per volume of fipronil) was used.
As a test sample representing the pesticide alone, a 0.01% by weight per volume ethanol solution of clothianidin or 0.01% by weight per volume ethanol solution of fipronil was used.
In the same manner as in <Test for Confirmation of Effect from Combined Use with Pesticide 1> above, the number of deaths among 50 honeybees (western honeybees) and that among 10 stink bugs (southern green stink bugs) were checked in each of the “untreated zone,” “test zone 1,” and “test zone 2.” Based on the results of <Test for Confirmation of Effect from Combined Use with Pesticide 1> above, the test was terminated when the number of dead honeybees in “test zone 1” reached around one half the tested population.

[2] = tested on: stink bugs; experiment: Test for Confirmation of Effect from Combined Use with Pesticide 1, 2: number of dead stink bugs; assay type: in vivo, southern green stink bugs; settings: of 10 stink bugs
Excerpt: as §1, §2, §3, §4, §5, §6, §7, §8, §9
As a test sample representing a combined use of the honeybee repellent proposed by the present invention and the pesticide, a mixed ethanol solution containing carvacrol and clothianidin (0.1% by weight per volume of carvacrol and 0.01% by weight per volume of clothianidin) or mixed ethanol solution containing carvacrol and fipronil (0.1% by weight per volume of carvacrol and 0.01% by weight per volume of fipronil) was used. […]

[3] = tested on: honeybees; experiment: Test for Confirmation of Honeybee Repelling Effect 1, 2, 3 (feeding station with 40% sugar water); assay type: in vivo; settings: for Corrected repelling rate (%) Honeybees: Test 3, 0.1% by weight per volume solution, 5 mL
[4] = tested on: stink bugs; experiment: Test for Confirmation of Stink Bug Behaviors against Active Ingredients 1, 2, 3 (treated filter paper); assay type: in vivo, southern green stink bugs
Excerpt: The test samples in “Test for Confirmation of Honeybee Repelling Effect 1” above were used.
A liquid calcium carbonate/ethanol dispersion was applied on the entire interior wall of a KP cup (100 mm in diameter×90 mm in height) and air-dried, after which a filter paper (90 mm in diameter) was fixed on the bottom face of the KP cup using double-sided tape. A different filter paper (90 mm in diameter) was cut along its diameter and the resulting semicircle-shaped paper was uniformly treated with 400 μL of each test sample or sample for correction, and then placed over the filter paper fixed on the aforementioned bottom face of the KP cup by allowing the circular parts to overlap, for use as a testing device.
The “repelling rate Y” and “corrected repelling rate Z” were calculated from the above “time A (sec)” and “time B (sec)” using the calculation formula below. For the “repelling rate of sample for correction” used to calculate the “corrected repelling rate Z,” the repelling rate of each of the samples for correction above (ethanol alone or water alone being a solvent for the active ingredient) was used.
Corrected repelling rate Z (%)={Repelling rate of test sample−Repelling rate of sample for correction}/{100−Repelling rate of sample for correction}×100
For the test samples, the test samples in “Test for Confirmation of Honeybee Repelling Effect 2” above were used.

[5] = 0 h (start of testing), 0.01% w/v pesticide, with or without 0.1% w/v repelling component, 5 mL on feeding station
[6] = 3 hours after the start of test
[7] = Test 3, 0.1% by weight per volume solution, 400 μL

## CN/C(=N\[N+](=O)[O-])NCc1cnc(Cl)s1 [clothianidin]
[1]; [5]
  Number of dead honeybees: 0
[1]; 1 h
  Number of dead honeybees: 11
[1]; 2 h
  Number of dead honeybees: 18
[1]; 3 h
  Number of dead honeybees: 39
[1]; [6]
  honeybees of the tested population that had died: approx. 60%

## CN/C(=N/CC1CCOC1)N[N+](=O)[O-] (stereo not shown) [dinotefuran]
[1]; [5]
  Number of dead honeybees: 0
[1]; 3 h
  Number of dead honeybees: 1
[1]; 18 h
  Number of dead honeybees: 3
[1]; 20 h
  Number of dead honeybees: 21
[1]; 20 hours after the start of testing
  honeybees of the tested population that had died: approx. 40%
[2]; 0 h (start of testing)
  Number of dead stink bugs: 0
[2]; 3 h
  Number of dead stink bugs: 2
[2]; 18 h
  Number of dead stink bugs: 5
[2]; 20 h
  Number of dead stink bugs: 6

## N#Cc1nn(-c2c(Cl)cc(C(F)(F)F)cc2Cl)c(N)c1[S+]([O-])C(F)(F)F (stereo not shown) [fipronil]
[1]; [5]
  Number of dead honeybees: 0
[1]; 2 h
  Number of dead honeybees: 14
[1]; 3 h
  Number of dead honeybees: 32
[1]; [6]
  honeybees of the tested population that had died: approx. 60%

## COc1cc(OC)cc(C(=O)O)c1 [y-76, 3,5-dimethoxybenzoic acid]
[3]
  Corrected repelling rate (%) Honeybees: 22.1%
[4]; [7]
  Corrected repelling rate (%) Stinkbugs: ∘

## c1ccc2cnccc2c1 [y-79, isoquinoline]
[3]
  Corrected repelling rate (%) Honeybees: 92.3%
[4]
  repelling of stink bugs and other injurious insects to be exterminated (in words): not repelling stink bugs
[4]; [7]
  Corrected repelling rate (%) Stinkbugs: ∘

## c1ccc2ncccc2c1 [y-81, quinoline]
[3]
  Corrected repelling rate (%) Honeybees: 80.2%
[4]
  repelling of stink bugs and other injurious insects to be exterminated (in words): not repelling stink bugs
[4]; [7]
  Corrected repelling rate (%) Stinkbugs: ∘

## c1ccc(-c2nc3ccccc3nc2-c2ccccc2)cc1 [y-84, 2,3-diphenylquinoxaline]
[3]
  Corrected repelling rate (%) Honeybees: 75.8%
[4]
  repelling of stink bugs and other injurious insects to be exterminated (in words): not repelling stink bugs
[4]; [7]
  Corrected repelling rate (%) Stinkbugs: ∘

## Oc1cccc2nccnc12 [y-85, 5-hydroxyquinoxaline]
[3]
  Corrected repelling rate (%) Honeybees: 71.5%
[4]
  repelling of stink bugs and other injurious insects to be exterminated (in words): not repelling stink bugs
[4]; [7]
  Corrected repelling rate (%) Stinkbugs: ∘

## Cc1cccc2ccccc12 [y-87, 1-methylnaphthalene]
[3]; Test 3, summary in text
  honeybee repelling rate: ≥ 50%
[3]
  Corrected repelling rate (%) Honeybees: 74.3%
[4]
  repelling of stink bugs and other injurious insects to be exterminated (in words): not repelling stink bugs
[4]; [7]
  Corrected repelling rate (%) Stinkbugs: ∘

## C1CCNC1 [y-91, pyrrolidine]
[3]
  Corrected repelling rate (%) Honeybees: 61.2%
[4]; 0.5 h, 0.1 % strength
  Corrected repelling rate (%) Stinkbugs: x (“x” for rates “not <0”)

## CCc1occc(=O)c1O [y-95, ethyl maltol]
[3]
  Corrected repelling rate (%) Honeybees: 27.6%
[4]; [7]
  Corrected repelling rate (%) Stinkbugs: ∘

## CCC(=O)Oc1c(C)occc1=O [y-96, maltol propionate]
[3]
  Corrected repelling rate (%) Honeybees: 57.5%
[4]
  repelling of stink bugs and other injurious insects to be exterminated (in words): not repelling stink bugs
[4]; [7]
  Corrected repelling rate (%) Stinkbugs: ∘
